Data from patent publication US5134235A, “Process for separating folinic acid” (Eprova A.G., priority 1987, dated 1992).
Like-named read-outs stand apart in the source and are kept apart here.

Experiments:
Solubility in water = assay type: physicochemical; details: for solubility: water; for solubility in water (in words): qualitative
[1] = Stability of folinic acid at higher pH during recrystallization; assay type: physicochemical; details: pH above the 8.5 to 12 range of the first recrystallization
[2] = cited: J. A. Straw et al, Cancer Research 44, 3114 (1984); cited from earlier work
[3] = cited: J. A. Straw et al, Cancer Research 44, 3114 (1984); cited from earlier work; remark: listed apart in the source

Compound: Nc1nc(=O)c2c([nH]1)NC[C@H](CNc1ccc(C(=O)N[C@@H](CCC(=O)O)C(=O)O)cc1)N2C=O [calcium-(6S)-folinate, Calcium-(6S)-folinate]
- strength of aqueous solution that can be formed (Solubility in water; at 20° C., aqueous solution): 0.95%
- solubility (Solubility in water; at 40° C., read-out: Solubility in water): 15 mg/mL

Compound: Nc1nc2c(c(=O)[nH]1)N(C=O)C(CNc1ccc(C(=O)N[C@@H](CCC(=O)O)C(=O)O)cc1)CN2 (stereo partly drawn) [folinic acid, N-(5-formyl-(6R,S)-5,6,7,8-tetrahydro-pteroyl)-L-glutamic acid]
- stability at higher pH [1]: appreciably lower

Compound: Nc1nc(=O)c2c([nH]1)NC[C@H](CNc1ccc(C(=O)N[C@@H](CCC(=O)O)C(=O)O)cc1)N2C=O [Sodium-(6S)-folinate]
- solubility in water (in words) (Solubility in water): readily soluble

Compound: Nc1nc(=O)c2c([nH]1)NC[C@H](CNc1ccc(C(=O)N[C@@H](CCC(=O)O)C(=O)O)cc1)N2C=O [magnesium-(6S)-folinate, Magnesium-(6S)-folinate]
- Solubility in water (Solubility in water; at 20° C.): 2.4 g/100 ml
- solubility (Solubility in water; general statement in description, temperature not given, read-out: water solubility): > 20 mg/mL

Compound: Nc1nc2c(c(=O)[nH]1)N(C=O)[C@H](CNc1ccc(C(=O)N[C@@H](CCC(=O)O)C(=O)O)cc1)CN2 [5-CHO-(6R)-H4 PteGlu]
- elimination through the urine [2]: slowly eliminated through the urine
- metabolism [2]: barely metabolized
- biochemical activity [3]: biochemically inactive

Compound: Nc1nc(=O)c2c([nH]1)NC[C@H](CNc1ccc(C(=O)N[C@@H](CCC(=O)O)C(=O)O)cc1)N2C=O [Potassium-(6S)-folinate]
- solubility in water (in words) (Solubility in water): readily soluble

Compound: Nc1nc(=O)c2c([nH]1)NC[C@H](CNc1ccc(C(=O)N[C@@H](CCC(=O)O)C(=O)O)cc1)N2C=O [(6S)-folinic acid, N-(5-formyl-(6S)-5,6,7,8-tetrahydro-pteroyl)-L-glutamic acid]
- solubility in water (in words) (Solubility in water): barely soluble
